One assay relates to soybean. The assay can be described thus: Preemergent control of plant species. It is filed as in vivo, Glycine max. Particulars: Glycine max, pre-emergence, 336 h; 0.25 lb/acre; read-out: percent preemergent control. The gist of the method:
(§1)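 Seeds planted in good agricultural soil beds; active ingredients then applied to the bed surface as aqueous emulsion at listed rates. Beds kept two weeks in greenhouse with watering. Control scored against water-treated beds.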

A further assay concerns rape. The assay can be described thus: Preemergent control of plant species. In kind it is in vivo, Brassica napus. As to conditions: Brassica napus, pre-emergence, 336 h; 0.25 lb/acre; read-out: percent preemergent control. The gist of the method:
as §1

Another assay relates to yellow foxtail. The assay can be described thus: Preemergent control of plant species. Particulars: Setaria, pre-emergence, 336 h; 0.25 lb/acre; read-out: percent preemergent control. It is filed as in vivo, Setaria lutescens. The gist of the method: as §1
The next assay deals with wheat. The assay can be described thus: Preemergent control of plant species. Particulars: Triticum aestivum, pre-emergence, 336 h; 0.25 lb/acre; read-out: percent preemergent control. In kind it is in vivo, Triticum aestivum. The gist of the method:
as §1

In another assay the test system is corn. The assay can be described thus: Preemergent control of plant species. It is filed as in vivo, Zea mays. Particulars: Zea mays, pre-emergence, 336 h; 0.25 lb/acre; read-out: percent preemergent control. The method, boiled down: as §1
Another assay has as its system velvetleaf. The assay can be described thus: Preemergent control of plant species. In kind it is in vivo, Abutilon theophrasti. Particulars: Abutilon theophrasti, pre-emergence, 336 h; 0.25 lb/acre; read-out: percent preemergent control. The method, boiled down: as §1
The next assay relates to rice. The assay can be described thus: Preemergent control of plant species. It is filed as in vivo, Oryza sativa. Particulars: Oryza sativa, pre-emergence, 336 h; 0.25 lb/acre; read-out: percent preemergent control. The method, boiled down:
as §1

The next assay concerns corn (First In). The assay can be described thus: Gametocidal activity in corn, postemergent application. As to conditions: sprayed at three leaf stage. In kind it is in vivo. As for the experimental part:
The compounds of this invention are also plant gametocides depending on the dosage and timing of application and the species of plant to which the compounds are applied. For example, certain of the compounds were sprayed on corn seedlings at the three leaf stage of growth, and the seedlings were returned to the greenhouse for subsequent growth and observation. The corn variety was "First In". The chemicals were dissolved in acetone, and the acetone solution was diluted with water containing Tween 20 wetting agent such that the final spray solution contained 50% acetone and 0.1% Tween 20 in water. […] Tabulated below are data which illustrate the use of the compounds of this invention as plant gametocides in corn.

A further assay deals with sugar beet. The assay can be described thus: Preemergent control of plant species. It is filed as in vivo, Beta saccharifera. As to conditions: Beta vulgaris, pre-emergence, 336 h; 0.25 lb/acre; read-out: percent preemergent control. The gist of the method:
as §1

For another assay, the system named is johnson grass. The assay can be described thus: Preemergent control of plant species. Particulars: Sorghum halepense, pre-emergence, 336 h; 0.25 lb/acre; read-out: percent preemergent control. In kind it is in vivo, Sorghum halepense. The gist of the method:
as §1

In a further assay the test system is barnyardgrass. The assay can be described thus: Preemergent control of plant species. It is filed as in vivo, Echinochloa crusgalli. Particulars: Echinochloa crus-galli, pre-emergence, 336 h; 0.25 lb/acre; read-out: percent preemergent control. The method, boiled down:
as §1

For a further assay, the system named is annual morning glory. The assay can be described thus: Preemergent control of plant species. It is filed as in vivo, Ipomoea spp. Particulars: Ipomoea, pre-emergence, 336 h; 0.25 lb/acre; read-out: percent preemergent control. The gist of the method:
as §1

The test system of another assay is sorghum. The assay can be described thus: Preemergent control of plant species. It is filed as in vivo, Sorghum vulgare. Particulars: Sorghum, pre-emergence, 336 h; 0.25 lb/acre; read-out: percent preemergent control. The gist of the method:
as §1

The next assay has as its system jimsonweed. The assay can be described thus: Preemergent control of plant species. It is filed as in vivo, Datura stramonium. Particulars: Datura stramonium, pre-emergence, 336 h; 0.25 lb/acre; read-out: percent preemergent control. The gist of the method:
as §1

In another assay the test system is yellow nutsedge. The assay can be described thus: Preemergent control of plant species. It is filed as in vivo, Cyperus esculentus. Particulars: Cyperus, pre-emergence, 336 h; 0.25 lb/acre; read-out: percent preemergent control. The gist of the method:
as §1

A further assay concerns cotton. The assay can be described thus: Preemergent control of plant species. In kind it is in vivo, Gossypium spp. Particulars: Gossypium hirsutum, pre-emergence, 336 h; 0.25 lb/acre; read-out: percent preemergent control. The gist of the method:
as §1

The text below walks through data of US4740233A, “Substituted 1,2,4-triazolo[1,5-a]-pyrimidine-2-sulfonamides and compositions and methods of controlling undesired vegetation and suppressing the nitrification of ammonium nitrogen in soil” (The Dow Chemical Company, priority 1986, dated 1988).

Molecules are shown by their SMILES.

On to `CC(=O)N(c1c(F)cccc1F)S(=O)(=O)c1nc2nc(C)ccn2n1` [Compound 275], for which the plant injury at 280.212 g/ha is 20% in the assay with soybean; 100% with rape; 100% with wheat; 80% in the assay on corn; 90% in the assay with rice; 100% in the assay on sugar beet. In addition, the plant injury at 280.212 g/ha in the assay with sorghum and in the assay with cotton was 100% in each case. Also, the pest or weed control at 280.212 g/ha was 100% in the assay with yellow foxtail; 100% in the assay with velvetleaf; 100% in the assay on johnson grass; 100% with barnyardgrass; 90% in the assay with annual morning glory; 100% in the assay on jimsonweed. Moreover, the pest or weed control at 280.212 g/ha with yellow nutsedge was 100%. The “concentration required to produce 100% control (gametocidal activity)” value in the assay on corn (First In) worked out at 400 ppm.
As for `Cc1ccn2nc(S(=O)(=O)N(C(=O)C(C)C)c3c(F)cccc3F)nc2n1` [Compound 277], the plant injury at 280.212 g/ha in the assay with soybean came out at 20%; in the assay with rape it was 100%; in the assay on wheat it was 80%; with corn, 40%; in the assay with rice, 80%; in the assay on sugar beet, 100%. Also, the plant injury at 280.212 g/ha is 90% in the assay on sorghum and 50% in the assay with cotton. Also, the pest or weed control at 280.212 g/ha in the assay with yellow foxtail came to 100%; in the assay with velvetleaf, 100%; with johnson grass, 100%; in the assay with barnyardgrass, 90%; in the assay with annual morning glory, 30%; in the assay with jimsonweed, 100%. Besides, the pest or weed control at 280.212 g/ha in the assay with yellow nutsedge came to 100%. For the same compound, in the assay on corn (First In), the “concentration required to produce 100% control (gametocidal activity)” value turned out to be 200 ppm.
Regarding `CCCCC(=O)N(c1c(F)cccc1F)S(=O)(=O)c1nc2nc(C)ccn2n1` [Compound 279], the plant injury at 280.212 g/ha amounted to 20% in the assay on soybean; 100% in the assay on rape; 90% in the assay on wheat; 80% in the assay on corn; 100% with rice; 100% with sugar beet. Also, the plant injury at 280.212 g/ha with sorghum stood at 100%; in the assay with cotton, 90%. Also, the pest or weed control at 280.212 g/ha in the assay on yellow foxtail was 100%; with velvetleaf, 100%; in the assay on johnson grass, 100%; with barnyardgrass, 100%; in the assay on annual morning glory, 90%; in the assay with jimsonweed, 100%. In addition, in the assay with yellow nutsedge, the pest or weed control at 280.212 g/ha is 100%. Further, the “concentration required to produce 100% control (gametocidal activity)” value with corn (First In) was found to be 50 ppm.
